Reference: patent publication US20210255193A1, “LYSINE REACTIVE PROBES AND USES THEREOF” (The Scripps Research Institute, priority 2017, published 2021)

What was measured:
Assay in all cases: competitive isoTOP-ABPP
Assay type in all cases: binding
STRN3 Striatin-3 = target: T1, STRN3 Striatin-3 (Homo sapiens, UniProt Q13033); conditions: 50 uM, 231 sol, in vitro; for R value (DMSO/fragment) for probe 1 labeling: Q13033_K755
T1 construct: isoTOP-ABPP experiments performed in cell lysates (in vitro); endogenous in cells; host or cells: soluble proteome of human cancer cell lines (MDA-MB-231, Ramos, Jurkat)
T1 sequence (Q13033 1-797): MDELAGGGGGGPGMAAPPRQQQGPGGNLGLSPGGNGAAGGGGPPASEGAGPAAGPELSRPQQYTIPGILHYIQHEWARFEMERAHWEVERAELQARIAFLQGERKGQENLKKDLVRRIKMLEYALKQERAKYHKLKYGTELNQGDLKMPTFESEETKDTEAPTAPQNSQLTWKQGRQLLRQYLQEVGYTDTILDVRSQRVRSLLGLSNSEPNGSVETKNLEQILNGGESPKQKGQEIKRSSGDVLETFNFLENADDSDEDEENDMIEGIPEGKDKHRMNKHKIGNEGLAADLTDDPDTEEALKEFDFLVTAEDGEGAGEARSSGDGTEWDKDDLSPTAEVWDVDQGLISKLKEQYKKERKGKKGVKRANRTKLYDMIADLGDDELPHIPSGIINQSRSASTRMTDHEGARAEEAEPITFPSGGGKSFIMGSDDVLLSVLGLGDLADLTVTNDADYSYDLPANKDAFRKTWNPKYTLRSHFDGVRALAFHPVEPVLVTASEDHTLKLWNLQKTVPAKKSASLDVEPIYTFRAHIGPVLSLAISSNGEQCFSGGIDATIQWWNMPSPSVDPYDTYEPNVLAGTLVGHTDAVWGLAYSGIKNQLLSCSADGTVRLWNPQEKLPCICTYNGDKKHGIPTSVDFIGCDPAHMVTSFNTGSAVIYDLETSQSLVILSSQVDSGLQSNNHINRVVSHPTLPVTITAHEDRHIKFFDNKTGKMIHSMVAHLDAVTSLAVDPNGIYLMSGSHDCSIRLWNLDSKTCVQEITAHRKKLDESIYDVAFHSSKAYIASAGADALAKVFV
In short: (§1)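 Readout: isotopic light/heavy MS1 peak-area ratio (R, DMSO heavy over compound light), median across peptides sharing a modified lysine. Lysate received fragment (activated esters 50 μM, guanidinylating agents 100 μM final) or DMSO, then 0.1 mM STP-alkyne probe for 1 h at ambient temperature.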

[1] = target: T2, GOLGB1 Golgin subfamily B member 1 (Homo sapiens, UniProt Q14789); conditions: 50 uM, in vitro; for isoTOP-ABPP reactivity ratio at lysine Q14789_K103 / R value (DMSO/fragment) for probe 1 labeling: 231 sol; for R value (DMSO/fragment) for probe 1 labeling: Q14789_K103
T2 construct: isoTOP-ABPP experiments performed in cell lysates (in vitro); endogenous in cells; host or cells: soluble proteome of human cancer cell lines (MDA-MB-231, Ramos, Jurkat)
In short: as §1

[2] = target: T3, GBAS Protein NipSnap homolog 2 (Homo sapiens, UniProt O75323); conditions: 50 uM, in vitro; for isoTOP-ABPP reactivity ratio at lysine O75323_K75 / R value (DMSO/fragment) for probe 1 labeling: 231 sol; for R value (DMSO/fragment) for probe 1 labeling: O75323_K75
T3 construct: isoTOP-ABPP experiments performed in cell lysates (in vitro); endogenous in cells; host or cells: MDA-MB-231 soluble lysate
T3 sequence (O75323 24-286): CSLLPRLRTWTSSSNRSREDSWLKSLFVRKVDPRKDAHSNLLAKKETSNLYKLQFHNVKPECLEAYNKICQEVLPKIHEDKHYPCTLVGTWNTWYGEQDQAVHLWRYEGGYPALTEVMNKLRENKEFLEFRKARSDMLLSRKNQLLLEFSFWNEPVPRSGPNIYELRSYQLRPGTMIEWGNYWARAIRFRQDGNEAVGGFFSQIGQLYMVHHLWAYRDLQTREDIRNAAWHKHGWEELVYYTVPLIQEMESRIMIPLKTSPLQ
In short: as §1

[3] = target: T4, RPL10 60S ribosomal protein L10 (Homo sapiens, UniProt P27635); conditions: 50 uM, in vitro
T4 construct: isoTOP-ABPP experiments performed in cell lysates (in vitro); endogenous in cells; host or cells: soluble proteome of human cancer cell lines (MDA-MB-231; Ramos and Jurkat also prepared)
In short: as §1

T2 sequence (Q14789 whole entry, the tested form may be a part): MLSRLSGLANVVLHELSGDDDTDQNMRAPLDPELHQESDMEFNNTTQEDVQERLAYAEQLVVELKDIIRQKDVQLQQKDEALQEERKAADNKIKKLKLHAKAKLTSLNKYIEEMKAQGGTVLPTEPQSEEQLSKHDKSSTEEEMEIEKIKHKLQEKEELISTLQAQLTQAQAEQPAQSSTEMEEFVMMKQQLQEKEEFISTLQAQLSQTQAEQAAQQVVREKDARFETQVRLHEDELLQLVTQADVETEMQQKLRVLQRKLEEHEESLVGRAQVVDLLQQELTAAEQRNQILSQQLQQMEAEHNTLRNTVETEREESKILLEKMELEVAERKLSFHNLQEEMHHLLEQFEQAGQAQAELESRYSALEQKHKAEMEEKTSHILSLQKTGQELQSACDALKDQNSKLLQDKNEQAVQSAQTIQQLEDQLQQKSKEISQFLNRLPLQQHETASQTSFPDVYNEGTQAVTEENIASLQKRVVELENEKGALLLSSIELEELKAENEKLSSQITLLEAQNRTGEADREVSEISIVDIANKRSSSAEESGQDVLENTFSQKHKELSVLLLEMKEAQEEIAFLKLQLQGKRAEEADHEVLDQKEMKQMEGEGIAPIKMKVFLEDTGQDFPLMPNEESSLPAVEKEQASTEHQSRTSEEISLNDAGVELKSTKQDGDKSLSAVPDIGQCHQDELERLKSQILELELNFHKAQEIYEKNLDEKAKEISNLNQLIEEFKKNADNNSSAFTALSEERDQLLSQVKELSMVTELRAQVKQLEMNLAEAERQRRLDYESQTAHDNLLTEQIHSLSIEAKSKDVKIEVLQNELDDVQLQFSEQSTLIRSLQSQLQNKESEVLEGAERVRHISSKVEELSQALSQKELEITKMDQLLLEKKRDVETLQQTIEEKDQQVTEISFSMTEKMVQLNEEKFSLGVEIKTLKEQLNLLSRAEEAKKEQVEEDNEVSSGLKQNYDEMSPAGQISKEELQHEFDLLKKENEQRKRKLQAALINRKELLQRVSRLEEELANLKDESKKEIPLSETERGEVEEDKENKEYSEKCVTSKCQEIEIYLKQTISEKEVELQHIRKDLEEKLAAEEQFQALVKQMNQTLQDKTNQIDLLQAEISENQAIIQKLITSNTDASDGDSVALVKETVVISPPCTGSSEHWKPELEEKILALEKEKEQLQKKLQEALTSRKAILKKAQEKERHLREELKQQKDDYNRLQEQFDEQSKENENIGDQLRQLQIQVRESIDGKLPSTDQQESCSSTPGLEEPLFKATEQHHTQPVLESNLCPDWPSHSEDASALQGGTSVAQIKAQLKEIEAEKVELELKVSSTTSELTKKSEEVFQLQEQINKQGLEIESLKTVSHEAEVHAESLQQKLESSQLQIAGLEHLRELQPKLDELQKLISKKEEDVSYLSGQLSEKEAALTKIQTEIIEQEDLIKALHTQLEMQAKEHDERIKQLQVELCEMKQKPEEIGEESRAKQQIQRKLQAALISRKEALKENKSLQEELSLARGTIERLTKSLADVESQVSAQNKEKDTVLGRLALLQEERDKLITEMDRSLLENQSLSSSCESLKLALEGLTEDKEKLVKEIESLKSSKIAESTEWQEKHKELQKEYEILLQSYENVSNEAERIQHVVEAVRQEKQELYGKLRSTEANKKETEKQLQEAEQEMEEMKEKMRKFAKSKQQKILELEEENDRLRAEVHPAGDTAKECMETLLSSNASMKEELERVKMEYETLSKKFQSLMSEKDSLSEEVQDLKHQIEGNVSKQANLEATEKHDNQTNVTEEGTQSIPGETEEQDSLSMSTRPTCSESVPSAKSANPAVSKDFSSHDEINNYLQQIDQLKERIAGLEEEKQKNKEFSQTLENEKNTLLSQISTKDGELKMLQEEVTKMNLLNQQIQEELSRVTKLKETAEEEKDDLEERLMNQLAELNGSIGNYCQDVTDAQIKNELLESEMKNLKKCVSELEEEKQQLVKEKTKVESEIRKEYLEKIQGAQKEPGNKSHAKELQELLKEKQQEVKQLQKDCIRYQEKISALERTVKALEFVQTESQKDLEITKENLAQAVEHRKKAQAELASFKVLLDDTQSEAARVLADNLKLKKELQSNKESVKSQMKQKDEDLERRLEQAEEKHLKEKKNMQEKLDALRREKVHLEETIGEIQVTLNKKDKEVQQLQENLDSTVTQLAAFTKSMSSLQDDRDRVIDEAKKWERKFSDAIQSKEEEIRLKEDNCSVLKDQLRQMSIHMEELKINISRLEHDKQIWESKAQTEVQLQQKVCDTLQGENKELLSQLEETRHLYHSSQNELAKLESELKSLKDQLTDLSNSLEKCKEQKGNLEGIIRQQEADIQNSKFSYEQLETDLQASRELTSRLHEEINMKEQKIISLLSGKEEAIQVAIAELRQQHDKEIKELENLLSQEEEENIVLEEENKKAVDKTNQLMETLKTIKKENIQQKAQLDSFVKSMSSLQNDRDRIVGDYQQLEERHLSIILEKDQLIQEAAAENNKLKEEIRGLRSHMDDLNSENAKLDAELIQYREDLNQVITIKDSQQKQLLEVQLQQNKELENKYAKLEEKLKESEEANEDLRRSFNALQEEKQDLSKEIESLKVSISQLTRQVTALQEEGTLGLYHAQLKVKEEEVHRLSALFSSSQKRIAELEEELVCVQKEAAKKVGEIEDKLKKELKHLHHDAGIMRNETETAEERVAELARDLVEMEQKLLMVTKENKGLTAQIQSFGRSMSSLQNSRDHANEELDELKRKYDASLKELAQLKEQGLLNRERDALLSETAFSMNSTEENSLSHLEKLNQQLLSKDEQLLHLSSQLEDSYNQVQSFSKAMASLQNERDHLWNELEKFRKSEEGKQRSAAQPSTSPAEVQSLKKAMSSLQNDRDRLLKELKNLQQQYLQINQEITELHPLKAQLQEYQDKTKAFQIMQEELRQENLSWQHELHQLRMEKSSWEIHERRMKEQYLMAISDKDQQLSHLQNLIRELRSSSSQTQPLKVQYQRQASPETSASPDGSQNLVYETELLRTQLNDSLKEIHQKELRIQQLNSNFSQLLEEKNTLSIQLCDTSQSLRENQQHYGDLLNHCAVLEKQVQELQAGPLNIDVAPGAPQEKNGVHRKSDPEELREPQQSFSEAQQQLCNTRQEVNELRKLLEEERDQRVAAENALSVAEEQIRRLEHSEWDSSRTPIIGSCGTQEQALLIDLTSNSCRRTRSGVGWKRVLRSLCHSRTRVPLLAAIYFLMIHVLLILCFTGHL

Row | SMILES | isoTOP-ABPP reactivity ratio at lysine Q13033_K755 (STRN3 Striatin-3) | isoTOP-ABPP reactivity ratio at lysine Q14789_K103 [1] | isoTOP-ABPP reactivity ratio at lysine O75323_K75 [2] | further results
1 | O=C(CN1C(=O)c2ccccc2C1=O)Oc1c(F)c(F)c(F)c(F)c1F [fragment 27, Pentafluorophenyl 2-(1,3-dioxoisoindolin-2-yl)acetate] | 1.0 | 1.3 | 20.0 | –
2 | O=C(CCc1cn(-c2ccccc2)nc1-c1ccccc1)Oc1c(F)c(F)c(F)c(F)c1F [fragment 19, Pentafluorophenyl 3-(1,3-diphenyl-1H-pyrazol-4-yl)propanoate] | – | – | – | R value (DMSO/fragment) for probe 1 labeling (STRN3 Striatin-3): 0.9; R value (DMSO/fragment) for probe 1 labeling [1]: 0.9; R value (DMSO/fragment) for probe 1 labeling ([3]; P27635_K121, 231 sol): 0.9; R value (DMSO/fragment) for probe 1 labeling [2]: 1.0
3 | COc1cc(CCC(=O)Oc2ccc([N+](=O)[O-])cc2[N+](=O)[O-])cc(OC)c1OC [fragment 33, 2,4-Dinitrophenyl 3-(3,4,5-trimethoxyphenyl)propanoate] | 1.8 | 1.0 | 3.0 | –
4 | O=C(Oc1ccc([N+](=O)[O-])cc1[N+](=O)[O-])C(c1ccccc1)c1ccccc1 [fragment 30, 2,4-Dinitrophenyl 2,2-diphenylacetate] | 2.0 | 1.4 | 1.1 | isoTOP-ABPP reactivity ratio at lysine P27635_K121 ([3]; 231 sol): 1.1
5 | O=C(Oc1ccc([N+](=O)[O-])cc1[N+](=O)[O-])c1cc(C(F)(F)F)cc(C(F)(F)F)c1 [fragment 31, 2,4-Dinitrophenyl 3,5-bis(trifluoromethyl)benzoate] | 1.4 | 0.9 | 0.8 | –
6 | CC(=O)Oc1ccc([N+](=O)[O-])cc1[N+](=O)[O-] [fragment 43, 2,4-Dinitrophenyl acetate] | – | – | – | isoTOP-ABPP ratio (R) at liganded lysine Q14789_K103 ([1]; sol, 231): 1.0; isoTOP-ABPP ratio (R) at liganded lysine P27635_K121 ([3]; sol, 231): 20.0; isoTOP-ABPP ratio (R) at liganded lysine O75323_K75 ([2]; sol, 231): 1.6
7 | CCn1cc(C(=O)Oc2c(F)c(F)c(F)c(F)c2F)c(=O)c2ccc(C)nc21 [fragment 28, Pentafluorophenyl 1-ethyl-7-methyl-4-oxo-1,4-dihydro-1,8-naphthyridine-3-carboxylate] | 0.9 | 0.9 | 1.0 | –
8 | O=C(Oc1c(F)c(F)c(F)c(F)c1F)C1CCN(C(=O)OCc2ccccc2)CC1 [fragment 24, 1-Benzyl 4-(pentafluorophenyl) piperidine-1,4-dicarboxylate] | 1.1 | 1.0 | 1.0 | –
9 | O=C(Oc1c(F)c(F)c(F)c(F)c1F)c1ccc2ccccc2n1 [fragment 25, Pentafluorophenyl quinoline-2-carboxylate] | 1.0 | 1.0 | 1.4 | –
10 | Cn1cc(CC(=O)Oc2ccc([N+](=O)[O-])cc2[N+](=O)[O-])c2ccccc21 [fragment 32, 2,4-Dinitrophenyl 2-(1-methyl-1H-indol-3-yl)acetate] | 2.7 | 7.0 | – | isoTOP-ABPP reactivity ratio at lysine P27635_K121 ([3]; 231 sol): 1.7
11 | COc1cc(CCC(=O)Oc2c(F)c(F)c(F)c(F)c2F)cc(OC)c1OC [fragment 23, Pentafluorophenyl 3-(3,4,5-trimethoxyphenyl)propanoate] | – | – | – | R value (DMSO/fragment) for probe 1 labeling (STRN3 Striatin-3): 1.2; R value (DMSO/fragment) for probe 1 labeling [1]: 1.0; R value (DMSO/fragment) for probe 1 labeling [2]: 1.1
